# Calls of active or inactive are those of the source. The calls are words filed in the database; no cut-off is given here.
# T1: Long-chain-fatty-acid--AMP ligase FadD32 (Mycobacterium tuberculosis (strain ATCC 25618 / H37Rv), UniProt O53580)
# T1 sequence (O53580 whole entry): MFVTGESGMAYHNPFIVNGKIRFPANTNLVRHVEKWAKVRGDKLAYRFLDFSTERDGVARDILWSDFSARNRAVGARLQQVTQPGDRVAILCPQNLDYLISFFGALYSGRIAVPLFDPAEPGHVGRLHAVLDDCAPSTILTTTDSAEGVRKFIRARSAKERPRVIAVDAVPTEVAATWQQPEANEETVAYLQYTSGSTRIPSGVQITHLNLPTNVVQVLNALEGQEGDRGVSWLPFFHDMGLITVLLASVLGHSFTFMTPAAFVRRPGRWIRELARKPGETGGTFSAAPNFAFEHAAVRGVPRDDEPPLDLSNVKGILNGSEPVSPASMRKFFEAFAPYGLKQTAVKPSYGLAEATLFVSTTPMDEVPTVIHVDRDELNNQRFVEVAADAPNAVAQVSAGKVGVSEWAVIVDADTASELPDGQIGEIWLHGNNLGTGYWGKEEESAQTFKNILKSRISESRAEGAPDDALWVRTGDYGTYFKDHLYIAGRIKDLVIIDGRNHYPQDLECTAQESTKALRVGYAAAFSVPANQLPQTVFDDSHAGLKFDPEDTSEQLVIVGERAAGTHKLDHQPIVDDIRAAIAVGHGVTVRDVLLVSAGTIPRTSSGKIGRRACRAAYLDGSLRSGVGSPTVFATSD
# T2: Long-chain-fatty-acid--AMP ligase FadD32 (Mycobacterium tuberculosis (strain ATCC 25618 / H37Rv)) (UniProt O53580)
# T2 sequence (whole entry): T1 sequence (O53580 whole entry)
# T3: Long-chain-fatty-acid--AMP ligase FadD28 (Mycobacterium tuberculosis) (UniProt P9WQ59)
# T3 sequence (whole entry): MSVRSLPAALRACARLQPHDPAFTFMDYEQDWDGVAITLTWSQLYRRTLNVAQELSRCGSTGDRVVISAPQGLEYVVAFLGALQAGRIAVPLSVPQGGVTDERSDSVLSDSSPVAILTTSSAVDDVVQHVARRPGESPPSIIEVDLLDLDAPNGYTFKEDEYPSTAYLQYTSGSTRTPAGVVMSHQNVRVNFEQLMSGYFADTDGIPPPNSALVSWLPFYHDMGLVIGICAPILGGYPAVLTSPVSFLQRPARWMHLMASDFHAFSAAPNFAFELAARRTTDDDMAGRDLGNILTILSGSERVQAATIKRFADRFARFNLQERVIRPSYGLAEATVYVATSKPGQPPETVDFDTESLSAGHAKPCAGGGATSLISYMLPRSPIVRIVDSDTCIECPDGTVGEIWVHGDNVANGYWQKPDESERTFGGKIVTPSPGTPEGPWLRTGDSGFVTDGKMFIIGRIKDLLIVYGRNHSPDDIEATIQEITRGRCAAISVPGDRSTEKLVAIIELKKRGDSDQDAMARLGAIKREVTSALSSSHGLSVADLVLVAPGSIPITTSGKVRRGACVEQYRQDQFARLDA
# B1: Long-chain-fatty-acid--AMP ligase FadD32 (Mycobacterium tuberculosis (strain ATCC 25618 / H37Rv)), O53580 (protein)
# chain: T1 sequence (O53580 whole entry)
# How the values were obtained:
# [1] = tested on: Mycobacterium tuberculosis; assay: Antitubercular activity against Mycobacterium tuberculosis H37Rv assessed as inhibition of bacterial growth incubated for 5 days by Alamar Blue based assay; assay type: functional, organism-based; conditions: for IC50: 120 h
# [2] = Toxicity in BALB/c mouse assessed as change in SGOT level in serum at 2.5 mg/kg, ip measured for 14 days; assay type: organism-based; conditions: in vivo, 336 h, time 14 day
# [3] = Toxicity in BALB/c mouse assessed as change in SGPT level in serum at 2.5 mg/kg, ip measured for 14 days; assay type: organism-based; conditions: in vivo, 336 h, time 14 day
# [4] = tested on: Mycobacterium tuberculosis; assay: Downregulation of groES mRNA expression in Mycobacterium tuberculosis assessed as fold change by qRT-PCR analysis; assay type: functional
# [5] = tested on: Mycobacterium tuberculosis; assay: Downregulation of PKS13 mRNA expression in Mycobacterium tuberculosis assessed as fold change by qRT-PCR analysis; assay type: functional
# [6] = target: T1, Long-chain-fatty-acid--AMP ligase FadD32; assay: Partial noncompetitive inhibition of Mycobacterium tuberculosis H37Rv recombinant FadD32 assessed as inhibition constant in presence of ATP by Lineweaver-burk plot analysis
# [7] = tested on: Mycobacterium tuberculosis; assay: Antitubercular activity against Mycobacterium tuberculosis infected in human THP-1 cells assessed as reduction in colony forming units at 5 to 9 microg/ml incubated for 48 hrs; assay type: functional, organism-based; conditions: dose 5-9 µg/ml
# [8] = tested on: Mycobacterium tuberculosis; assay: Antitubercular activity against Mycobacterium tuberculosis H37Rv assessed as inhibition of bacterial growth incubated for 5 days in presence of rifampicin by Alamar Blue based assay; assay type: functional, organism-based; conditions: time 5.0 day
# [9] = tested on: Mycobacterium tuberculosis; assay: Downregulation of IspD mRNA expression in Mycobacterium tuberculosis assessed as fold change by qRT-PCR analysis; assay type: functional
# [10] = Toxicity in BALB/c mouse assessed as body weight loss at 2.5 mg/kg, ip measured for 14 days; assay type: organism-based; conditions: in vivo, 336 h, time 14 day
# [11] = tested on: Mycobacterium tuberculosis; assay: Downregulation of fadD28 mRNA expression in Mycobacterium tuberculosis assessed as fold change by qRT-PCR analysis; assay type: functional
# Escherichia coli = assay: Antibacterial activity against Escherichia coli assessed as inhibition of bacterial growth upto 200 microg/ml incubated for 5 days by Alamar Blue based assay; assay type: functional, organism-based; conditions: dose <= 200.0 µg/ml, time 5.0 day
# RAW264.7 = assay: Cytotoxicity against mouse RAW264.7 cells assessed as cell viability at 25 microg/ml incubated for 24 hrs by MTT assay; assay type: toxicity, cell-based; conditions: raw264.7, 24 h, dose 25 µg/ml
# [12] = tested on: Mycobacterium tuberculosis; assay: Antitubercular activity against Mycobacterium tuberculosis infected in human THP-1 cells assessed as reduction in colony forming units at 5 to 9 microg/ml incubated for 48 hrs in presence of isoniazid; assay type: functional, organism-based; conditions: dose 5-9 µg/ml
# [13] = tested on: Mycobacterium tuberculosis; assay: Antitubercular activity against Mycobacterium tuberculosis infected in human THP-1 cells assessed as reduction in colony forming units at 5 to 9 microg/ml incubated for 48 hrs in presence of rifampin; assay type: functional, organism-based; conditions: dose 5-9 µg/ml
# [14] = tested on: Mycobacterium tuberculosis; assay: Downregulation of papA mRNA expression in Mycobacterium tuberculosis assessed as fold change by qRT-PCR analysis; assay type: functional
# [15] = tested on: Mycobacterium tuberculosis; assay: Downregulation of murE mRNA expression in Mycobacterium tuberculosis assessed as fold change by qRT-PCR analysis; assay type: functional
# [16] = tested on: Mycobacterium tuberculosis; assay: Downregulation of hspX mRNA expression in Mycobacterium tuberculosis assessed as fold change by qRT-PCR analysis; assay type: functional
# [17] = target: T2, Long-chain-fatty-acid--AMP ligase FadD32 (Mycobacterium tuberculosis (strain ATCC 25618 / H37Rv)); assay: Inhibition of Mycobacterium tuberculosis H37Rv recombinant FadD32 upto 200 uM in presence of lauric acid by Michaelis-Menten plot analysis
# [18] = tested on: Mycobacterium tuberculosis; assay: Downregulation of esxH mRNA expression in Mycobacterium tuberculosis assessed as fold change by qRT-PCR analysis; assay type: functional
# [19] = tested on: Mycobacterium tuberculosis; assay: Antitubercular activity against Mycobacterium tuberculosis infected in mouse RAW264.7 cells assessed as reduction in colony forming units at 5 to 9 microg/ml incubated for 48 hrs in presence of rifampin; assay type: functional, organism-based; conditions: dose 5-9 µg/ml
# [20] = target: T1, Long-chain-fatty-acid--AMP ligase FadD32; assay: Uncompetitive inhibition of Mycobacterium tuberculosis H37Rv recombinant FadD32 assessed as inhibition constant in presence of lauric acid by Lineweaver-burk plot analysis
# [21] = tested on: Mycobacterium tuberculosis; assay: Downregulation of ctpC mRNA expression in Mycobacterium tuberculosis assessed as fold change by qRT-PCR analysis; assay type: functional
# [22] = tested on: Mycobacterium tuberculosis; assay: Antitubercular activity against Mycobacterium tuberculosis H37Rv assessed as inhibition of bacterial growth incubated for 5 days in presence of isoniazid by Alamar Blue based assay; assay type: functional, organism-based; conditions: time 5.0 day
# [23] = tested on: Mycobacterium tuberculosis; assay: Downregulation of fadD32 mRNA expression in Mycobacterium tuberculosis assessed as fold change by qRT-PCR analysis; assay type: functional
# [24] = Toxicity in BALB/c mouse assessed as change in BUN level in serum at 2.5 mg/kg, ip measured for 14 days; assay type: organism-based; conditions: in vivo, 336 h, time 14 day
# [25] = target: T3, Long-chain-fatty-acid--AMP ligase FadD28 (Mycobacterium tuberculosis); assay: Inhibition of Mycobacterium tuberculosis H37Rv recombinant fadD28 at 200 uM relative to control
# [26] = target: T2, Long-chain-fatty-acid--AMP ligase FadD32 (Mycobacterium tuberculosis (strain ATCC 25618 / H37Rv)); assay: Inhibition of Mycobacterium tuberculosis H37Rv recombinant fadD32 at 200 uM relative to control
# [27] = tested on: Mycobacterium tuberculosis; assay: Antitubercular activity against Mycobacterium tuberculosis infected in human THP-1 cells assessed as reduction in colony forming units at 5 to 9 microg/ml incubated for 48 hrs in presence of ethambutol; assay type: functional, organism-based; conditions: dose 5-9 µg/ml
# [28] = tested on: Mycobacterium tuberculosis; assay: Antitubercular activity against Mycobacterium tuberculosis infected in mouse RAW264.7 cells assessed as reduction in colony forming units at 5 to 9 microg/ml incubated for 48 hrs in presence of isoniazid; assay type: functional, organism-based; conditions: dose 5-9 µg/ml
# [29] = Toxicity in BALB/c mouse assessed as change in creatine level in serum at 2.5 mg/kg, ip measured for 14 days; assay type: organism-based; conditions: in vivo, 336 h, time 14 day
# [30] = tested on: Mycolicibacterium smegmatis; assay: Antimycobacterial activity against Mycobacterium smegmatis assessed as inhibition of bacterial growth incubated for 5 days by Alamar Blue based assay; assay type: functional, organism-based; conditions: 120 h
# [31] = tested on: Mycobacterium tuberculosis; assay: Downregulation of CarD mRNA expression in Mycobacterium tuberculosis assessed as fold change by qRT-PCR analysis; assay type: functional
# [32] = Toxicity in BALB/c mouse assessed as change in ALP level in serum at 2.5 mg/kg, ip measured for 14 days; assay type: organism-based; conditions: in vivo, 336 h, time 14 day
# [33] = tested on: Mycobacterium tuberculosis; assay: Antitubercular activity against Mycobacterium tuberculosis H37Rv infected in BALB/c mouse chronic model assessed as reduction in tubercular granulomas at 2.5 mg/kg, ip measured after 4 weeks by H and E staining based analysis; assay type: functional, organism-based
# [34] = tested on: Mycobacterium tuberculosis; assay: Antitubercular activity against Mycobacterium tuberculosis infected in mouse RAW264.7 cells assessed as reduction in colony forming units at 5 to 9 microg/ml incubated for 48 hrs in presence of ethambutol; assay type: functional, organism-based; conditions: dose 5-9 µg/ml
# [35] = Toxicity in BALB/c mouse assessed as animal survival at 2.5 mg/kg, ip measured for 14 days; assay type: organism-based; conditions: in vivo, 336 h, time 14 day
# [36] = tested on: Mycobacterium tuberculosis; assay: Antitubercular activity against Mycobacterium tuberculosis H37Rv infected in BALB/c mouse chronic model assessed as reduction in reduction in mycobacterial burden in lung at 2.5 mg/kg, ip measured after 21 to 25 days by H and E staining based analysis; assay type: functional, organism-based; conditions: time 21-25 day
# THP-1 = assay: Cytotoxicity against PMA-differentiated human THP-1 cells assessed as reduction in cell viability at 25 microg/ml incubated for 24 hrs by MTT assay; assay type: toxicity, cell-based; conditions: thp-1, 24 h, dose 25 µg/ml
# [37] = tested on: Mycobacterium tuberculosis; assay: Downregulation of efpA mRNA expression in Mycobacterium tuberculosis assessed as fold change by qRT-PCR analysis; assay type: functional
# [38] = tested on: Mycobacterium tuberculosis; assay: Antitubercular activity against Mycobacterium tuberculosis infected in mouse RAW264.7 cells assessed as reduction in colony forming units at 5 to 9 microg/ml incubated for 48 hrs; assay type: functional, organism-based; conditions: dose 5-9 µg/ml
# [39] = compound: Oc1c(Br)cc(Br)cc1-c1cc(C(F)(F)F)no1; assay: Binding affinity to Mycobacterium tuberculosis H37Rv recombinant FadD32 assessed as Km in presence of ATP by Michaelis-Menten plot analysis
# [40] = compound: Oc1c(Br)cc(Br)cc1-c1cc(C(F)(F)F)no1; assay: Binding affinity to Mycobacterium tuberculosis H37Rv recombinant FadD32 assessed as Km in presence of lauric acid by Michaelis-Menten plot analysis
molecule,measurement,setting,value
Oc1ccc(-c2onc(C(F)(F)F)c2-c2ccc(Cl)cc2)c(O)c1,Activity,[1]; time 5.0 day,inactive
Cc1ccc(O)c(-c2cc(C(F)(F)F)no2)c1,IC50,[1],10.5 µg/mL
Oc1c(Br)cc(Br)cc1-c1cc(C(F)(F)F)no1,Activity,[2],Non-toxic
same,Activity,[3],Non-toxic
same,fold change (FC),[4],2
same,fold change (FC),[5],2
same,Ki,[6],55.3 µM
same,Activity,[7],Active
same,Activity,[8],Active
same,fold change (FC),[9],2
same,Activity,[10],Non-toxic
same,fold change (FC),[11],2
same,Activity,Escherichia coli,inactive
same,Activity,RAW264.7,Non-toxic
same,IC50,[1],4.8 µg/mL
same,Activity,[12],Active
same,Activity,[13],Active
same,fold change (FC),[14],2
same,fold change (FC),[15],2
same,fold change (FC),[16],2
same,inhibition,[17],Active
same,fold change (FC),[18],2
same,Activity,[19],Active
same,Ki,[20],48.1 µM
same,fold change (FC),[21],2
same,Activity,[22],Active
same,fold change (FC),[23],2
same,Activity,[24],Non-toxic
same,inhibition,[25],50%
same,inhibition,[26],95%
same,Activity,[27],Active
same,Activity,[28],Active
same,Activity,[29],Non-toxic
same,IC50,[30],20.8 µg/mL
same,fold change (FC),[31],2
same,Activity,[32],Non-toxic
same,Activity,[33],Active
same,Activity,[34],Active
same,Activity,[35],Non-toxic
same,Activity,[36],Active
same,Activity,THP-1,Non-toxic
same,fold change (FC),[37],2
same,Activity,[38],Active
COc1ccc(-c2onc(C(F)(F)F)c2-c2ccccc2)c(O)c1,IC50,[1],21.7 µg/mL
B1,Km,[39],248 µM
same,Km,[40],139 µM
